Drawing on the supplement of paper PMC10290057, this text covers AC50 cell viability and efficacy for 35 molecules.

Counter-ions that a name gives are not always drawn.

The subject of test [1] is HCT116. Description: AC50 cell viability (CellTiter-Glo); higher = less potent. Conditions: 48 h. A general note: Cellular ATP, detected with luciferase, serves as a proxy for viable cell number.
In test [2] the test system is HCT116. Description: efficacy (fitted maximal change in viability relative to DMSO control); higher = less cytotoxic (negative = loss of viability). Conditions: 48 h.
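Throughout, for AC50 cell viability (CellTiter-Glo): HCT116 colorectal carcinoma cells screened at five concentrations per compound, luminescent viability scaled between DMSO wells and empty wells on each plate, curves fitted per compound.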
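Throughout, for efficacy (fitted maximal change in viability relative to DMSO control): Luminescence-based viability readout, five doses per compound, normalized against on-plate DMSO and empty-well controls, followed by dose-response curve fitting for every drug.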

As for `O=C1Nc2cc(Br)ccc2/C1=C1/Nc2ccccc2/C1=N\O` [BIO], in the test on HCT116 [1], the AC50 cell viability worked out at 10.5 µM. Besides, in the test on HCT116 [2], the efficacy was -102%.
The like results for `Nc1cc(C(F)(F)F)c(-c2cc(N3CCOCC3)nc(N3CCOCC3)n2)cn1` [BKM-120] were, in that order, 1.66 µM and -71.8%.
On to `CNC(=O)c1cc(Oc2ccc3nc(N[C@@H]4CCCC[C@H]4O)sc3c2)ccn1` [BLZ-945], for which, in the test with HCT116 [1], the AC50 cell viability amounted to 20.9 µM. In addition, in the test on HCT116 [2], the efficacy was -41.8%.
The like results for `NC(=O)c1ccc2[nH]c(-c3ccc(Oc4ccc(Cl)cc4)cc3)nc2c1` [BML-277] were, in that order, 18.6 µM and -67.3%.
The like results for `FC1=CC=C(C=C1)N2/C=C\C=C(C(=O)NC3=CC=C(OC4=C5C=C[NH]C5=NC=C4)C(=C3)F)/C2=O` [BMS-2] were, in that order, 18.6 µM and -37.8%.
Molecule `O=C(Nc1ncc(-c2cc(C(F)F)nn2-c2c(Cl)cccc2Cl)s1)C1CC1` [BMS-3] gave an AC50 cell viability in the test with HCT116 [1] of 0.833 µM. The efficacy with HCT116 [2] was -68%.
The like results for `CC(C)C(=O)Nc1ncc(-c2cc(C(F)F)nn2-c2c(Cl)cccc2Cl)s1` [BMS-5] were, in that order, 18.6 µM and -80.8%.
Take `COc1nc(OCc2cccc(-c3ccccc3)c2C)ccc1CNCCNC(C)=O` [BMS-202]: in the test with HCT116 [1], the AC50 cell viability worked out at 14.8 µM. Further, the efficacy with HCT116 [2] is -89.9%.
The molecule `COC(=O)Nc1cc(Nc2cc(NC3CC3)c3ncc(C#N)n3n2)c(Cl)c(N2CCN(C)CC2)c1` [BMS-595] returned an AC50 cell viability in the test with HCT116 [1] of 0.525 µM. Further, in the test on HCT116 [2], the efficacy is -103%.
The like results for `CC(C)c1cnn2c(NCc3ccccc3)cc(N[C@@H](CO)[C@H](O)CO)nc12` [BS-194] were, in that order, 0.0833 µM and -59.1%.
As for `C[C@@H]1CN(Cc2ccc(F)cc2)CCN1C(=O)COc1ccc(Cl)cc1NC(N)=O` [BX-471], the AC50 cell viability in the test with HCT116 [1] was 0.209 µM. Besides, the efficacy with HCT116 [2] is -59.8%.
As to `Cc1nc(NC(=O)N2CCCC2C(N)=O)sc1-c1ccnc(C(C)(C)C(F)(F)F)c1` (stereo not given) [BYL-719], in the test on HCT116 [1], the AC50 cell viability is 3.72 µM. Further, the efficacy with HCT116 [2] is -87.4%.
The like results for `Cc1ccc(NC(=O)c2ccc(CN3CC[C@H](N(C)C)C3)c(C(F)(F)F)c2)cc1Nc1nccc(-c2cncnc2)n1` [Bafetinib (INNO-406)] were, in that order, 7.23 µM and -131%.
The like results for `CO/C1=C/C(C)=C\[C@@H](C)[C@@H](O)[C@@H](C)C/C(C)=C\C=C/[C@H](OC)[C@@H]([C@@H](C)[C@@H](O)[C@H](C)[C@@]2(O)C[C@@H](O)[C@H](C)[C@@H](C(C)C)O2)OC1=O` [Bafilomycin A1] were, in that order, 0.035 µM and -81.9%.
The like results for `C[N+](C)([O-])CCNc1ccc(NCC[N+](C)(C)[O-])c2c1C(=O)c1c(O)ccc(O)c1C2=O` [Banoxantrone] were, in that order, 2.09 µM and -45.2%.
Molecule `COC(=O)[C@]12CCC(C)(C)C[C@H]1[C@H]3C(=O)\C=C\4[C@@](C)(CC[C@H]5C(C)(C)C(=O)\C(=C/[C@]45C)C#N)[C@]3(C)CC2` [Bardoxolone methyl] displayed an AC50 cell viability in the test with HCT116 [1] of 7.42 µM. In addition, in the test with HCT116 [2], the efficacy was -91.9%.
The like results for `CC[S+](=O)([O-])N1CC(CC#N)(n2cc(-c3ncnc4[nH]ccc34)cn2)C1` [Baricitinib] were, in that order, 29.5 µM and -91.6%.
The like results for `O=C1Nc2nc(-c3c(O)cccc3OCC3CC3)cc([C@@H]3CCCNC3)c2CO1` [Bay-65-1942 hydrochloride] were, in that order, 9.34 µM and -90.5%.
The like results for `CC(C)(C)NC(=O)Nc1cccc(Nc2ncc(F)c(NC(C)(C)CO)n2)c1` [Bayer-18] were, in that order, 18.6 µM and -54.8%.
In the test with HCT116 [1], `Cc1c(-c2ccc(O)cc2)n(Cc2ccc(OCCN3CCCCCC3)cc2)c2ccc(O)cc12` [Bazedoxifene] had an AC50 cell viability of 20.9 µM. In addition, the efficacy in the test with HCT116 [2] is -101%.
The like results for `O=C(/C=C/c1cccc([S+](=O)([O-])Nc2ccccc2)c1)NO` [Belinostat] were, in that order, 0.525 µM and -87.7%.
The like results for `CC(C)NC(=O)[C@H]1CC[C@@H](n2c(NC(=O)c3ccc(F)cc3)nc3ccc(CN4CCC(C(C)(C)O)CC4)cc32)CC1` [Belizatinib] were, in that order, 7.23 µM and -92.8%.
Consider `CC[C@@]1(O)C(=O)OCC/2=C1/C=C/3N(CC4=C(CCNC(C)C)C5=CC=CC=C5N=C34)C2=O` [Belotecan], for which the AC50 cell viability with HCT116 [1] stood at 0.0166 µM. The efficacy with HCT116 [2] is -80.8%.
The like results for `Nc1nc(Nc2ccc3c(c2)CC[C@@H](N2CCCC2)CC3)nn1-c1cc2c(nn1)-c1ccccc1CCC2` [Bemcentinib] were, in that order, 14.8 µM and -108%.
The like results for `N/C(=N\C(=O)c1nc(Cl)c(N)nc1N)NCc1ccccc1` [Benzamil] were, in that order, 20.9 µM and -81%.
The like results for `CC(C)COCC(CN(Cc1ccccc1)c1ccccc1)N1CCCC1` (stereo not given) [Bepridil] were, in that order, 16.6 µM and -104%.
`COc1ccc2cc3[n+](cc2c1OC)CCc1cc2c(cc1-3)OCO2` [Berberine] came in with an AC50 cell viability in the test with HCT116 [1] of 14.8 µM. Further, in the test with HCT116 [2], the efficacy was -96.9%.
The like results for `CNCc1ccc(-c2cc(-c3nc(-c4ccc([S+](=O)([O-])C(C)C)cc4)cnc3N)on2)cc1` [Berzosertib] were, in that order, 10.5 µM and -63%.
The like results for `C[N+](C)(C)CC(=O)O` [Betaine] were, in that order, 20.9 µM and -51.8%.
The like results for `Nc1cc(C(F)(F)F)c(-c2nc(N3CCOCC3)nc(N3CCOCC3)n2)cn1` [Bimiralisib] were, in that order, 1.86 µM and -60.2%.
Regarding `CC1=C(C)C\2=C(S1)[N]3C(=NN=C3C(CC(=O)NC4=CC=C(O)C=C4)\N=C2C5=CC=C(Cl)C=C5)C` (stereo not given) [Birabresib], the AC50 cell viability in the test on HCT116 [1] is 0.833 µM. Besides, the efficacy with HCT116 [2] was -80.8%.
The like results for `O=C\1NC(=O)\C(=C1C2=C[NH]C3=C2C=CC=C3)C4=C[NH]C5=C4C=CC=C5` [Bisindolylmaleimide] were, in that order, 18.6 µM and -85.7%.
The like results for `Cc1c(N)nc([C@H](CC(N)=O)NC[C@@H](N)C(N)=O)nc1C(=O)N[C@H](C(=O)N[C@@H](C)[C@H](O)[C@@H](C)C(=O)N[C@@H](C(=O)NCCc1nc(-c2nc(C(=O)NCCC[S+](C)C)cs2)cs1)[C@@H](C)O)C(O[C@H]1O[C@H](CO)[C@H](O)[C@@H](O)[C@H]1O[C@H]1O[C@H](CO)[C@@H](O)[C@H](OC(N)=O)[C@@H]1O)c1c[nH]cn1` (stereo not given in full) [Bleomycin sulfate] were, in that order, 1.62 µM and -34.2%.
On to `CC(C)C[C@H](NC(=O)[C@H](Cc1ccccc1)NC(=O)c1cnccn1)B(O)O` [Bortezomib], for which the AC50 cell viability with HCT116 [1] stood at 0.0132 µM. In the test with HCT116 [2], the efficacy was -94.1%.
The like results for `COc1cc(Nc2c(C#N)cnc3cc(OCCCN4CCN(C)CC4)c(OC)cc23)c(Cl)cc1Cl` [Bosutinib] were, in that order, 4.68 µM and -93.7%.
